Where a name gives a salt, the structure may show the parent alone.
Assay: Solubility of the salt in vehicle compared to water alone
Assay type: physicochemical
Experimental: Salt was dissolved in the 40/60 (w/w %) hydroxypropyl-β-cyclodextrin/water vehicle.
The solubility of the salt was almost 40 times higher in this vehicle compared to water alone.
Salt was dissolved in PEG 400, ethanol and the surfactant Solutol™ (BASF; comprises polyethylene glycol esters of 12-OH-stearic acid). Water was added to the final volume. The solubility of the benzenesulphonate salt was approximately 4 times higher in this vehicle than it is in water alone.

solubility in vehicle compared to water alone (vehicle Polyethyleneglycol 400/Ethanol/Solutol/Water (40/10/5/45 w/w %)): approximately 4 times
solubility in vehicle compared to water alone (vehicle hydroxypropyl-β-cyclodextrin/water (40/60 w/w %)): ~40 times
Compound: CC(C)(C)C(=O)CN1CC2CN(CCCNc3ccc(C#N)cc3)CC(C1)O2 [Compound A, benzenesulphonic acid salt, 4-({3-[7-(3,3-dimethyl-2-oxobutyl)-9-oxa-3,7-diazabicyclo[3.3.1]non-3-yl]propyl}amino)benzonitrile]

— patent publication US20050037067A1, “3,7-Diazabicyclo [3.3.1]formulations as anti-arrhythmic compounds” (priority 2001, published 2005)
